# Data taken from publication PMC9851200, “Multiparameter phenotypic screening for endogenous TFEB and TFE3 translocation identifies novel chemical series modulating lysosome function” (Autophagy, 2022).
# Assays:
# Assay type in all cases: binding
# [1] = target: kinases (KINOMEscan panel) (Homo sapiens, UniProt O95747); conditions: NEW KINOMEscan
# [2] = target: kinases (KINOMEscan panel) (Homo sapiens, UniProt P08581, M1250T); conditions: kinase MET(M1250T); NEW KINOMEscan
# [3] = target: kinases (KINOMEscan panel) (Homo sapiens, UniProt P10721, D816V); conditions: kinase KIT(D816V); NEW KINOMEscan
# [4] = target: kinases (KINOMEscan panel) (Homo sapiens, UniProt P17612); conditions: kinase PRKACA; NEW KINOMEscan
# [5] = target: kinases (KINOMEscan panel) (Homo sapiens, UniProt P23458); conditions: JAK1(JH1domain-catalytic); NEW KINOMEscan
# [6] = target: kinases (KINOMEscan panel) (Homo sapiens, UniProt P36888, N841I); conditions: FLT3(N841I); NEW KINOMEscan
# [7] = target: kinases (KINOMEscan panel) (Homo sapiens, UniProt P49761); conditions: CLK3; NEW KINOMEscan
# [8] = target: T1, kinases (KINOMEscan panel) (Homo sapiens, UniProt P51817); conditions: kinase PRKX; NEW KINOMEscan
# T1 sequence (P51817 1-358): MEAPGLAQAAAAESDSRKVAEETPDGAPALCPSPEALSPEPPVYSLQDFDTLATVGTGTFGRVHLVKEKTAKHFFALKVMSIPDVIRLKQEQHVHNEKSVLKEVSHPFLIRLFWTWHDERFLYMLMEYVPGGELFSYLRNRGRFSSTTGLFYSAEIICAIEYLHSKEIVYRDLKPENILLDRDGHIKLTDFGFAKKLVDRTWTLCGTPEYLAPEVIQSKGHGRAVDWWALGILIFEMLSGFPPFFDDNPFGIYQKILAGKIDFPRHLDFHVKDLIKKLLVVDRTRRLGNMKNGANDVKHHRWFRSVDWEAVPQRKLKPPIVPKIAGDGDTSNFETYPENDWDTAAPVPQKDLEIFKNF
# [9] = target: kinases (KINOMEscan panel) (Homo sapiens, UniProt P53778)
# [10] = target: T2, kinases (KINOMEscan panel) (Homo sapiens, UniProt P54760); conditions: EPHB4; NEW KINOMEscan
# T2 sequence (P54760 16-987): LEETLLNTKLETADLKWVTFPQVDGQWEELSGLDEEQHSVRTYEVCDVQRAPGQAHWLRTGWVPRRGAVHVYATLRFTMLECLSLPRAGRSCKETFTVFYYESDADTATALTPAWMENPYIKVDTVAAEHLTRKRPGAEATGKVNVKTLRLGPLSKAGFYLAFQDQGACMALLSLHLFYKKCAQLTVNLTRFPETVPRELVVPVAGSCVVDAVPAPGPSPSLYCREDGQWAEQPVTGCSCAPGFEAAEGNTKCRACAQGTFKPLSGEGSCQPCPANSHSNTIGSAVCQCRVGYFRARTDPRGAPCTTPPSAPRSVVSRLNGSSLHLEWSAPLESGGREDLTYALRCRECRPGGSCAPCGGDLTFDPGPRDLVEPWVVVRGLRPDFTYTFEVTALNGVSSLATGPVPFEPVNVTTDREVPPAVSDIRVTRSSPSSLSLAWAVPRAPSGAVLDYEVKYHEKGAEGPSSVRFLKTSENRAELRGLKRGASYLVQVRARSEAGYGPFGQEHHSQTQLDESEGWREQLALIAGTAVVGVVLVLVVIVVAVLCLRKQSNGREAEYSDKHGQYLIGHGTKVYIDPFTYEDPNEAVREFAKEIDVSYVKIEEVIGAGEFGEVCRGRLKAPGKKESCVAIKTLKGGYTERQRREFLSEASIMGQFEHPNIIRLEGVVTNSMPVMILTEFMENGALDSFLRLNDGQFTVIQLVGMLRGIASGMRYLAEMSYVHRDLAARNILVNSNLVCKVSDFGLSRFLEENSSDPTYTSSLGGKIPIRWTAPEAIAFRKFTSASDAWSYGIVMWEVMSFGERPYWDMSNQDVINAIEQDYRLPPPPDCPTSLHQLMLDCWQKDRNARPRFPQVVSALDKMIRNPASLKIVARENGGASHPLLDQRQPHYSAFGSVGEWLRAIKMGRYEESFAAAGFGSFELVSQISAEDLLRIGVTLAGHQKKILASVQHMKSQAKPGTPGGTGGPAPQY
# [11] = target: kinases (KINOMEscan panel) (Homo sapiens, UniProt Q05655); conditions: kinase PRKCD; NEW KINOMEscan
# [12] = target: kinases (KINOMEscan panel) (Homo sapiens, UniProt Q2M2I8); conditions: AAK1; NEW KINOMEscan
# [13] = target: kinases (KINOMEscan panel) (Homo sapiens, UniProt Q5VT25)
# [14] = target: kinases (KINOMEscan panel) (Homo sapiens, UniProt Q96SB4); conditions: kinase SRPK1; NEW KINOMEscan
# [15] = target: T3, kinases (KINOMEscan panel) (Homo sapiens, UniProt Q9BXA7); conditions: kinase TSSK1B; NEW KINOMEscan
# T3 sequence (Q9BXA7 1-367): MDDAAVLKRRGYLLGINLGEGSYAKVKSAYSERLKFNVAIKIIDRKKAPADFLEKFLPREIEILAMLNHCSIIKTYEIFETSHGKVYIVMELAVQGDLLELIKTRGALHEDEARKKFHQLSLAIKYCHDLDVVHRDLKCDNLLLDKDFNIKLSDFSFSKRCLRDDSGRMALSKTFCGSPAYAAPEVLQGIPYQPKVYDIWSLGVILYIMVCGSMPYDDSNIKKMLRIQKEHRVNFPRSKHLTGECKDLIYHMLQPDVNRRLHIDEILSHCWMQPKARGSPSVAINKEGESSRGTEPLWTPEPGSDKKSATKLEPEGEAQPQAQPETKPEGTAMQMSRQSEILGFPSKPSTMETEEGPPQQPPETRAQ
# [16] = target: kinases (KINOMEscan panel) (Plasmodium falciparum, UniProt P62344); conditions: PFCDPK1(P.falciparum); NEW KINOMEscan
# Sequence of kinases (KINOMEscan panel) (Homo sapiens, UniProt P23458) (P23458 whole entry): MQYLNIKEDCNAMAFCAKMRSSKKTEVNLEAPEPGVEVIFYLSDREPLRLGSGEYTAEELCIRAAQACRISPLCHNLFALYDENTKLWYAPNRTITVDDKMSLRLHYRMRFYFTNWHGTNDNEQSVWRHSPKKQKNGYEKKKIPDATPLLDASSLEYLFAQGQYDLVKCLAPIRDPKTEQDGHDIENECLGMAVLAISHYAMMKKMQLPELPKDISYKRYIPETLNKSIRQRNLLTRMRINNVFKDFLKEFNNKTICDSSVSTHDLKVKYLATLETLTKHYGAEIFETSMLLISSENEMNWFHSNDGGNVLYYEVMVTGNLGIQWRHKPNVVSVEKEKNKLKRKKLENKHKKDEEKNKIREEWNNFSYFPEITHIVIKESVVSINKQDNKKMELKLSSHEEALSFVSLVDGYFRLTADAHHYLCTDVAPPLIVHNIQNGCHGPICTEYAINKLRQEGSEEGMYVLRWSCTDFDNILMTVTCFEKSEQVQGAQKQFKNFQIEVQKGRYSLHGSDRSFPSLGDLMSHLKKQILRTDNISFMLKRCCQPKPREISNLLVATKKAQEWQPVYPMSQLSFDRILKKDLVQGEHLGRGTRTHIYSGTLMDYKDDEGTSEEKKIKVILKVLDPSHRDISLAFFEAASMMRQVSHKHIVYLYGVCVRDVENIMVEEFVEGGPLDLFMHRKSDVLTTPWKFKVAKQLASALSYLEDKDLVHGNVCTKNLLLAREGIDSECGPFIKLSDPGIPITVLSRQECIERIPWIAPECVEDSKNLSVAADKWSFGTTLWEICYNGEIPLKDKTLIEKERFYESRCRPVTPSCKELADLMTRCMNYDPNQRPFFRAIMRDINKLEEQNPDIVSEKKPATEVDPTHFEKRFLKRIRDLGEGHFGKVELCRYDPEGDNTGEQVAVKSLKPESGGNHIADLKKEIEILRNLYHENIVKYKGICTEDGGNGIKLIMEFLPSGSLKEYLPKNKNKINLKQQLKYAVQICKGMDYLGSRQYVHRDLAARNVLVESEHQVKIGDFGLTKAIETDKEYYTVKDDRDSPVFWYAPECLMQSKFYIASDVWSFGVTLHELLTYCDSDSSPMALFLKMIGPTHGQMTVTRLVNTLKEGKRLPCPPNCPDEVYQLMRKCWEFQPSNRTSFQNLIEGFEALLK
# Sequence of kinases (KINOMEscan panel) (Homo sapiens, UniProt O95747) (O95747 whole entry): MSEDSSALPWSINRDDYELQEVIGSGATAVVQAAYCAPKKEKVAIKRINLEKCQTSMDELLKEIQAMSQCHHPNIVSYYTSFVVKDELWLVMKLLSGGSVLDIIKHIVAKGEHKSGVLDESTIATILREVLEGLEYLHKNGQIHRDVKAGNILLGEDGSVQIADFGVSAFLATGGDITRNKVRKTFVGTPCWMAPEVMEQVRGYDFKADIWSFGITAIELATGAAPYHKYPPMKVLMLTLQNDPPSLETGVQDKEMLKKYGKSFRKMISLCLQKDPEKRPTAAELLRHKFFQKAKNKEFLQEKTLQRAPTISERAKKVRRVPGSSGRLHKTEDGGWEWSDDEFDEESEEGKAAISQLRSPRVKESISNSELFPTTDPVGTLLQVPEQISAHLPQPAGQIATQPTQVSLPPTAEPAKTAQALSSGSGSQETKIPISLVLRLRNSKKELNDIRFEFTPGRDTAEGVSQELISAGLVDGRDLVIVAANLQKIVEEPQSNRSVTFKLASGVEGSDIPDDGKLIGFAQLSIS
# Sequence of kinases (KINOMEscan panel) (Homo sapiens, UniProt Q96SB4) (Q96SB4 whole entry): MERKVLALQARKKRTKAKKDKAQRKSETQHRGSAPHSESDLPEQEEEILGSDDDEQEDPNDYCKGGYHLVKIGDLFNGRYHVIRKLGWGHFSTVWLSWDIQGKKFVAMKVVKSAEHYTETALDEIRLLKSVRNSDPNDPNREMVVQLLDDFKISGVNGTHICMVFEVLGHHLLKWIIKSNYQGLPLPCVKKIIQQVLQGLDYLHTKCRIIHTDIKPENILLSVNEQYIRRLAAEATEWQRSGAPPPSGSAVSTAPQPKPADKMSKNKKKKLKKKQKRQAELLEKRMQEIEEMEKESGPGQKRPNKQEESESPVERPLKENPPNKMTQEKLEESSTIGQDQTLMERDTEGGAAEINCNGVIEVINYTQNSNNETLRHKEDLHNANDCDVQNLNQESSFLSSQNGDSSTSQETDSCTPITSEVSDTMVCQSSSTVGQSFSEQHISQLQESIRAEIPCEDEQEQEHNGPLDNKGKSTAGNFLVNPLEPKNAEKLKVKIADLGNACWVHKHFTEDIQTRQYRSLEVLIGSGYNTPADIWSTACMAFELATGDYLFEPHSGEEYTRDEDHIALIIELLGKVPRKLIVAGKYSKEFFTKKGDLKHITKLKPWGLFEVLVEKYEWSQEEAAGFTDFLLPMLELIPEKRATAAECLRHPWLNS
# Sequence of kinases (KINOMEscan panel) (Homo sapiens, UniProt P08581, M1250T) (P08581 25-1390 M1250T): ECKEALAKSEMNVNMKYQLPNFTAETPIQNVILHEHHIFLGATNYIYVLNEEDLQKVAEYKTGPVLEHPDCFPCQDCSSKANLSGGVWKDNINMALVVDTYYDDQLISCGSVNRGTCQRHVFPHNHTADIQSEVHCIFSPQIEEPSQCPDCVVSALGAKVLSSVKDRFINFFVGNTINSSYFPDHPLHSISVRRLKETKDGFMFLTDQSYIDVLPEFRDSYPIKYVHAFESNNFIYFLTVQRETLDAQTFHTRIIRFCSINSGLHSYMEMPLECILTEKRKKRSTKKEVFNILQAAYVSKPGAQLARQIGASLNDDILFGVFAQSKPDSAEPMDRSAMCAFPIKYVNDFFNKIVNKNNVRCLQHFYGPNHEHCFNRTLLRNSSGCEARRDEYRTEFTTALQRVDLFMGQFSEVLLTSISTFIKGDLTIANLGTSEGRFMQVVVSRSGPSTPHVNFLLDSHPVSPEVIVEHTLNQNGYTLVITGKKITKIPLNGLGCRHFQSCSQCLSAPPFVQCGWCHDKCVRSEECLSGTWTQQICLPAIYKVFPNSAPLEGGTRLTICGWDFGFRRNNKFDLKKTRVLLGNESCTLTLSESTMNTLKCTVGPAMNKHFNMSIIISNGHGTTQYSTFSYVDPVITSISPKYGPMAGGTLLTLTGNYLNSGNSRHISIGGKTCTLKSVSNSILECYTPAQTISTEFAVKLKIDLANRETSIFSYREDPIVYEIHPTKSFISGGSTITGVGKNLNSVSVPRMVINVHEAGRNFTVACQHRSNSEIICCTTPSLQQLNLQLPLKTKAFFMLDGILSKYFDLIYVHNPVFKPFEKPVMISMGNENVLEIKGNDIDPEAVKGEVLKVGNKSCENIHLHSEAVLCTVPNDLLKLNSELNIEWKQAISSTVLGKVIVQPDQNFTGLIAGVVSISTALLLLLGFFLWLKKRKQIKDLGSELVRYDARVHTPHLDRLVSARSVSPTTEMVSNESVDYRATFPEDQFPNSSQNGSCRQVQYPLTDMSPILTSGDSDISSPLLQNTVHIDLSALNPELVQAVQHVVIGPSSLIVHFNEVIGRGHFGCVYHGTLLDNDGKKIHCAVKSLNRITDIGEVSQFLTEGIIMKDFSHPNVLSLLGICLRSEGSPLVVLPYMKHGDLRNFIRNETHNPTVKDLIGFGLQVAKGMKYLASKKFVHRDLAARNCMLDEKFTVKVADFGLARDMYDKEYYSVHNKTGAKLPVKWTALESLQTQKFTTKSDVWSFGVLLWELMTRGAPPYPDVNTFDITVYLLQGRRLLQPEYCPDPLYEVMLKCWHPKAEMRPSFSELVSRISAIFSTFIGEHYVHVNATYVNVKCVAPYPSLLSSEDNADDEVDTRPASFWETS
# Sequence of kinases (KINOMEscan panel) (Homo sapiens, UniProt P49761) (P49761 whole entry): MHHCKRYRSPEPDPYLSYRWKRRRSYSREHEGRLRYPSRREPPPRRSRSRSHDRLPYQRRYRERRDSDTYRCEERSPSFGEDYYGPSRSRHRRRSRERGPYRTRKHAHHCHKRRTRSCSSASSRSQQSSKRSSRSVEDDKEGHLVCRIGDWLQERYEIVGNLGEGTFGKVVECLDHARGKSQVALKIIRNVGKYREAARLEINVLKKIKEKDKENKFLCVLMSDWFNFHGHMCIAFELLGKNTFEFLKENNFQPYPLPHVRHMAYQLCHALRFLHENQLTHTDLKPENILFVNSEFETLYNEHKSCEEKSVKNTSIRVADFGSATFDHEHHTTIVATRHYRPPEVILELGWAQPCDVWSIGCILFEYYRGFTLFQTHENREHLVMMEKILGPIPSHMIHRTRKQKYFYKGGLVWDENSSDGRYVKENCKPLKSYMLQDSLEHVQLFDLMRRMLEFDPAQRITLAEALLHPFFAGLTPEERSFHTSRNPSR
# Sequence of kinases (KINOMEscan panel) (Homo sapiens, UniProt Q05655) (Q05655 whole entry): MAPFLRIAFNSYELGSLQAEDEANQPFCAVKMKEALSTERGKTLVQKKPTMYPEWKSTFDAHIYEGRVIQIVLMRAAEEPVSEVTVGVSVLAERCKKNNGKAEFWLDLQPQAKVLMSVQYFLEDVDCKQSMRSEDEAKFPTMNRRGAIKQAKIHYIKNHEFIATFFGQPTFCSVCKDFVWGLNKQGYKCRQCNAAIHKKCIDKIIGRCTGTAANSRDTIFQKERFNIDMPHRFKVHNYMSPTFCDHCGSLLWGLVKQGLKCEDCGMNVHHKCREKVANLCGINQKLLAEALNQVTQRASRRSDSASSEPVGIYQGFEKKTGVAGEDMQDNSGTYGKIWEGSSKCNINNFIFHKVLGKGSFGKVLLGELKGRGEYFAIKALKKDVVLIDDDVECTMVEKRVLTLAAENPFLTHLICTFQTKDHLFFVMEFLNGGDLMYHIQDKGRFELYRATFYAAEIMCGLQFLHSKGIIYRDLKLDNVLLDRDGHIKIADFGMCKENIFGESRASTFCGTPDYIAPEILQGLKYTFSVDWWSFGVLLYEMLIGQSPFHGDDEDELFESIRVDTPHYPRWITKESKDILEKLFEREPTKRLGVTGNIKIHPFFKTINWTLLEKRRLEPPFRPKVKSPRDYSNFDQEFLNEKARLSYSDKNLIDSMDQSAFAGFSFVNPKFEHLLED
SMILES,KINOMEscan OSXR1 [1],KINOMEscan MET(M1250T) [2],KINOMEscan KIT(D816V) [3],KINOMEscan PRKACA [4],KINOMEscan JAK1(JH1domain-catalytic) [5],KINOMEscan FLT3(N841I) [6],KINOMEscan CLK3 [7],KINOMEscan PRKX [8],KINOMEscan MAPK12/p38-gamma [9],KINOMEscan EPHB4 [10],KINOMEscan PRKCD [11],KINOMEscan AAK1 [12],KINOMEscan CDC42BPA/MRCKA [13],KINOMEscan SRPK1 [14],KINOMEscan TSSK1B [15],KINOMEscan PFCDPK1(P.falciparum) [16]
Cc1cccc(-c2nc(Nc3ccc4nn(C)cc4c3)c3ccccc3n2)n1 [NK167],11,0,0,12,0,3,6,0,43,0,21,1,0,2,15,0
Cc1cccc(-c2nc(N(C)c3ccc4ncsc4c3)c3ccccc3n2)n1 [NK-161],25,3,7,17,0,0,4,7,27,0,16,5,5,7,11,0
